Active and inactive are the calls of the source. No cut-off for these calls is given here.
How the values were obtained:
[1] = biological target: Protein kinase C beta type (Homo sapiens) (UniProt P05771); experiment: Inhibition of recombinant human PKCbeta1 (2 to end residues) assessed as residual activity at 10 uM using histone H1 as substrate measured after 40 mins in presence of [gamma33P]ATP by scintillation counting method
Homo sapiens = species: Homo sapiens; experiment: Inhibition of recombinant human MAPKAPK2 A399G mutant (46 to end residues) assessed as residual activity at 10 uM using KKLNRTLSVA as substrate measured after 40 mins in presence of [gamma33P]ATP by scintillation counting method
[2] = biological target: Serine/threonine-protein kinase PLK1 (Homo sapiens) (UniProt P53350); experiment: Inhibition of recombinant full-length human Plk1 assessed as residual activity at 10 uM using casein as substrate measured after 40 mins in presence of [gamma33P]ATP by scintillation counting method
[3] = biological target: Serine/threonine-protein kinase tousled-like 1 (Homo sapiens) (UniProt Q9UKI8); experiment: Inhibition of recombinant full-length human TLK1 assessed as residual activity at 10 uM using casein as substrate measured after 40 mins in presence of [gamma33P]ATP by scintillation counting method
[4] = biological target: Serine/threonine-protein kinase SIK3 (Homo sapiens) (UniProt Q9Y2K2); experiment: Inhibition of human SIK3 (1 to 307 residues) using KKKVSRSGLYRSPSMPENLNRPR as substrate measured after 40 mins in presence of [gamma33P]ATP by scintillation counting method; set-up: scale not given: the % may be the effect or the level left
[5] = system: eIF-2-alpha kinase GCN2 (Homo sapiens), Q9P2K8 [E556G]; experiment: Inhibition of recombinant full-length human GCN2 E556G mutant assessed as residual activity at 10 uM using RSRSRSRSRSRSRSR as substrate measured after 40 mins in presence of [gamma33P]ATP by scintillation counting method
HCT-116 [6] = experiment: Induction of apoptosis in human HCT116 cells assessed as late apoptotic cells at 25 nM measured after 48 hrs by Annexin V-FITC/propidium iodide staining-based flow cytometry (reference value: 3.87%); format: functional
[7] = biological target: Serine/threonine-protein kinase/endoribonuclease IRE1 (Homo sapiens) (UniProt O75460); experiment: Inhibition of recombinant human IRE1 (465 to end residues) assessed as residual activity at 10 uM using myelin basic protein as substrate measured after 40 mins in presence of [gamma33P]ATP by scintillation counting method
HCT-116 [8] = experiment: Induction of apoptosis in human HCT116 cells assessed as necrotic cells at 50 nM measured after 48 hrs by Annexin V-FITC/propidium iodide staining-based flow cytometry (reference value: 1.16%); format: functional
[9] = system: RAF proto-oncogene serine/threonine-protein kinase (Homo sapiens), P04049 [Y340D,Y341D]; experiment: Inhibition of recombinant human c-RAF Y340D/Y341D mutant (360 to end residues) assessed as residual activity at 10 uM using inactive MEK1 as substrate measured after 40 mins in presence of [gamma33P]ATP by scintillation counting method
[10] = biological target: Macrophage-stimulating protein receptor (Homo sapiens) (UniProt Q04912); experiment: Inhibition of human Ron (983 to end residues) using GGMEDIYFEFMGGKKK as substrate measured after 40 mins in presence of [gamma33P]ATP by scintillation counting method; set-up: scale not given: the % may be the effect or the level left
[11] = biological target: cAMP-dependent protein kinase catalytic subunit alpha (Homo sapiens) (UniProt P17612); experiment: Inhibition of recombinant full-length human PKA assessed as residual activity at 10 uM using Kemptide as substrate measured after 40 mins in presence of [gamma33P]ATP by scintillation counting method
HCT-116 [12] = experiment: Antitumor activity against human HCT116 cells xenografted in nude BALB/c mouse assessed as reduction in tumor weight at 40 mg/kg, po administered once daily for 4 weeks measured every 3 days during compound dosing; format: functional, organism-based
[13] = system: Serine/threonine-protein kinase N1 (Homo sapiens), Q16512 [V901I]; experiment: Inhibition of human PRK1 V901I mutant (498 to end residues) using KKLNRTLSFAEPG as substrate measured after 40 mins in presence of [gamma33P]ATP by scintillation counting method; set-up: scale not given: the % may be the effect or the level left
[14] = biological target: Serine/threonine-protein kinase ULK1 (Homo sapiens) (UniProt O75385); experiment: Inhibition of human ULK1 (1 to 314 residues) using casein as substrate measured after 40 mins in presence of [gamma33P]ATP by scintillation counting method; set-up: scale not given: the % may be the effect or the level left
[15] = biological target: Insulin-like growth factor 1 receptor (Homo sapiens) (UniProt P08069); experiment: Inhibition of recombinant human IGF1R (959 to end residues) assessed as residual activity at 10 uM using KKKSPGEYVNIEFG as substrate measured after 40 mins in presence of [gamma33P]ATP by scintillation counting method
[16] = biological target: Serine/threonine-protein kinase PRP4 homolog (Homo sapiens) (UniProt Q13523); experiment: Inhibition of human PRP4 (663 to end residues) using casein as substrate measured after 40 mins in presence of [gamma33P]ATP by scintillation counting method; set-up: scale not given: the % may be the effect or the level left
[17] = biological target: Ephrin type-A receptor 4 (Homo sapiens) (UniProt P54764); experiment: Inhibition of recombinant human EphA4 (601 to 892 residues) assessed as residual activity at 10 uM using poly(Glu, Tyr) 4:1 as substrate measured after 40 mins in presence of [gamma33P]ATP by scintillation counting method
HT-29 = experiment: Antiproliferative activity against human HT-29 cells assessed as reduction in cell viability after 72 hrs by MTT assay; format: functional, cell-based; conditions: HT-29, 72 h
[18] = biological target: Tyrosine-protein kinase ZAP-70 (Homo sapiens) (UniProt P43403); experiment: Inhibition of recombinant full-length human ZAP70 assessed as residual activity at 10 uM using poly(Glu, Tyr) 4:1 as substrate measured after 40 mins in presence of [gamma33P]ATP by scintillation counting method
[19] = biological target: Serine/threonine-protein kinase PLK3 (Homo sapiens) (UniProt Q9H4B4); experiment: Inhibition of recombinant human Plk3 (19 to 301 residues) assessed as residual activity at 10 uM using casein as substrate measured after 40 mins in presence of [gamma33P]ATP by scintillation counting method
[20] = biological target: Dual specificity mitogen-activated protein kinase kinase 3 (Homo sapiens) (UniProt P46734); experiment: Inhibition of human MKK3 assessed as residual activity at 10 uM by radiometric method
[21] = biological target: Serine-protein kinase ATM (Homo sapiens) (UniProt Q13315); experiment: Inhibition of recombinant full-length human ATM assessed as residual activity at 10 uM using GST-cMyc-p53 as substrate measured after 40 mins by ELISA
[22] = biological target: Ephrin type-A receptor 1 (Homo sapiens) (UniProt P21709); experiment: Inhibition of recombinant human EphA1 (568 to end residues) assessed as residual activity at 10 uM using KKKSPGEYVNIEF as substrate measured after 40 mins in presence of [gamma33P]ATP by scintillation counting method
[23] = biological target: PI3K p110 delta/p85 alpha (Mus musculus) (UniProt P26450+O35904); experiment: Inhibition of recombinant full-length mouse PI3K p110delta/p85alpha assessed as residual activity at 10 uM using phosphatidylinositol-4, 5-bisphosphate as substrate measured after 40 mins by HTRF assay; format: protein-complex assay

Sequence of Serine/threonine-protein kinase PRP4 homolog (Homo sapiens) (Q13523 whole entry, the tested form may be a part): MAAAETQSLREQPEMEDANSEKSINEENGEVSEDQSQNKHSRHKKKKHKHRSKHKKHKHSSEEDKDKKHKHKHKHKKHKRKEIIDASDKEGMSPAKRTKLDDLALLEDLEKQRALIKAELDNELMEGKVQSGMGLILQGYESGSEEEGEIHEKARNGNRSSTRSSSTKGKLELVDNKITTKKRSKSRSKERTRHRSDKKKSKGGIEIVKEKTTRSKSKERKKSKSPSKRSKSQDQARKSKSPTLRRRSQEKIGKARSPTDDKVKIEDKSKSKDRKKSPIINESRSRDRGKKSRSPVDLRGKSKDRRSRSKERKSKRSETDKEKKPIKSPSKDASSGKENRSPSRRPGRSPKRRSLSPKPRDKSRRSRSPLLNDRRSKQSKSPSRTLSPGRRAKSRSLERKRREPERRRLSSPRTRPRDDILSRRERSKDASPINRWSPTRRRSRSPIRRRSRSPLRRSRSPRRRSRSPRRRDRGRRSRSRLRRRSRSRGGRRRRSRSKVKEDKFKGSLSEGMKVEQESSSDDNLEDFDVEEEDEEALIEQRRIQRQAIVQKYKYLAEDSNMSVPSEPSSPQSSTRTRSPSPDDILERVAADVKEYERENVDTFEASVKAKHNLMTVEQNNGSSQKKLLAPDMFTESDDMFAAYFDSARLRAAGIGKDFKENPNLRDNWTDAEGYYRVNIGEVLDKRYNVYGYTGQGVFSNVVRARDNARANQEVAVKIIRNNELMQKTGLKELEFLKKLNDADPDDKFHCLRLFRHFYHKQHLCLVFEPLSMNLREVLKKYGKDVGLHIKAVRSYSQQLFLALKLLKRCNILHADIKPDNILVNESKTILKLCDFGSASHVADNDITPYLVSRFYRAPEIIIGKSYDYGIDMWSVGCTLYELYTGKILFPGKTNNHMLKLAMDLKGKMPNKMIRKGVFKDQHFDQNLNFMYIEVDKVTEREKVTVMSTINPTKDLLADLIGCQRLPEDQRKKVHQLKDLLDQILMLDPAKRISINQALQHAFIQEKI
Sequence of Tyrosine-protein kinase ZAP-70 (Homo sapiens) (P43403 whole entry, the tested form may be a part): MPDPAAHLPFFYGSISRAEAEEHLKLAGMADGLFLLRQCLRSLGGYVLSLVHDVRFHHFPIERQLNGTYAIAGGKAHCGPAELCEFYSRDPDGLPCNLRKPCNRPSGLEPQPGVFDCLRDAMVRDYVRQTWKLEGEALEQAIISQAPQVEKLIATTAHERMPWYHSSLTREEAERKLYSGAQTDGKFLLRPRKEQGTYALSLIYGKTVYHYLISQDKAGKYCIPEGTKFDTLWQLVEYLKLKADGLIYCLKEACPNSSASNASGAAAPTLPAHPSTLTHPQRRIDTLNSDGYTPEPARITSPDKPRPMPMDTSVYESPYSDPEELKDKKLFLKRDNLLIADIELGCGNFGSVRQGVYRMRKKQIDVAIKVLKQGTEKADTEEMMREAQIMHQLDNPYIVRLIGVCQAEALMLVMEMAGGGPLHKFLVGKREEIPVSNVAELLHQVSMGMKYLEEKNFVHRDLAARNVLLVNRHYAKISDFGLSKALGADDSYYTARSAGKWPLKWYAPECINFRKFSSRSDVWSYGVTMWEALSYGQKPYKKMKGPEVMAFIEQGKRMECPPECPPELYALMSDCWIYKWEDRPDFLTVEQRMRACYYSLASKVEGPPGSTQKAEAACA
Sequence of Ephrin type-A receptor 4 (Homo sapiens) (P54764 whole entry, the tested form may be a part): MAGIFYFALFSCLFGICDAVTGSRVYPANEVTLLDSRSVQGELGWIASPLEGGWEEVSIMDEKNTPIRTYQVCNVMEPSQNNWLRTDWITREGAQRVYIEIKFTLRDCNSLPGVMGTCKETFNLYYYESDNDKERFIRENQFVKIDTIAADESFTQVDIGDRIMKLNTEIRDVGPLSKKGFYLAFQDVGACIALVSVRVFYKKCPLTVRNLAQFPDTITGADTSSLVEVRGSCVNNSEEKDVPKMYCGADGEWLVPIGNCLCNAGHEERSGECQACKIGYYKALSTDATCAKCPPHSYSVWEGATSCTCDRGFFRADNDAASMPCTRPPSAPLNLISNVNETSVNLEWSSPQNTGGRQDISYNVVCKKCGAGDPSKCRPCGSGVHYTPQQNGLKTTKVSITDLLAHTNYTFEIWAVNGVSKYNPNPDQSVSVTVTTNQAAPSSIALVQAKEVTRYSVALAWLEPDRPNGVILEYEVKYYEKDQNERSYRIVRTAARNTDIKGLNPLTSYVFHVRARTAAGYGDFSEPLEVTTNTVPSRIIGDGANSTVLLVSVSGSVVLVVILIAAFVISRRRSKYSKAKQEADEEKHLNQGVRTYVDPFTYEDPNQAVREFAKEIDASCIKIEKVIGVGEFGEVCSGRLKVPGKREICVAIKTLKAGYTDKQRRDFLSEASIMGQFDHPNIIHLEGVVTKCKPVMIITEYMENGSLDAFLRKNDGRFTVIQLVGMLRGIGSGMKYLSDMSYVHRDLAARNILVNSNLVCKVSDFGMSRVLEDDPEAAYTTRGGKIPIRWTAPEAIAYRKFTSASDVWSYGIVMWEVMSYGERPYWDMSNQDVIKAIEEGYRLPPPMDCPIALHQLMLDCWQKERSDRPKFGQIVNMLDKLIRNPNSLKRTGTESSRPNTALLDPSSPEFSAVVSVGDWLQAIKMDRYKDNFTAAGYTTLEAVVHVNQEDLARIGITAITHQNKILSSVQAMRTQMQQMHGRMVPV
Sequence of eIF-2-alpha kinase GCN2 (Homo sapiens), Q9P2K8 [E556G] (Q9P2K8 whole entry E556G): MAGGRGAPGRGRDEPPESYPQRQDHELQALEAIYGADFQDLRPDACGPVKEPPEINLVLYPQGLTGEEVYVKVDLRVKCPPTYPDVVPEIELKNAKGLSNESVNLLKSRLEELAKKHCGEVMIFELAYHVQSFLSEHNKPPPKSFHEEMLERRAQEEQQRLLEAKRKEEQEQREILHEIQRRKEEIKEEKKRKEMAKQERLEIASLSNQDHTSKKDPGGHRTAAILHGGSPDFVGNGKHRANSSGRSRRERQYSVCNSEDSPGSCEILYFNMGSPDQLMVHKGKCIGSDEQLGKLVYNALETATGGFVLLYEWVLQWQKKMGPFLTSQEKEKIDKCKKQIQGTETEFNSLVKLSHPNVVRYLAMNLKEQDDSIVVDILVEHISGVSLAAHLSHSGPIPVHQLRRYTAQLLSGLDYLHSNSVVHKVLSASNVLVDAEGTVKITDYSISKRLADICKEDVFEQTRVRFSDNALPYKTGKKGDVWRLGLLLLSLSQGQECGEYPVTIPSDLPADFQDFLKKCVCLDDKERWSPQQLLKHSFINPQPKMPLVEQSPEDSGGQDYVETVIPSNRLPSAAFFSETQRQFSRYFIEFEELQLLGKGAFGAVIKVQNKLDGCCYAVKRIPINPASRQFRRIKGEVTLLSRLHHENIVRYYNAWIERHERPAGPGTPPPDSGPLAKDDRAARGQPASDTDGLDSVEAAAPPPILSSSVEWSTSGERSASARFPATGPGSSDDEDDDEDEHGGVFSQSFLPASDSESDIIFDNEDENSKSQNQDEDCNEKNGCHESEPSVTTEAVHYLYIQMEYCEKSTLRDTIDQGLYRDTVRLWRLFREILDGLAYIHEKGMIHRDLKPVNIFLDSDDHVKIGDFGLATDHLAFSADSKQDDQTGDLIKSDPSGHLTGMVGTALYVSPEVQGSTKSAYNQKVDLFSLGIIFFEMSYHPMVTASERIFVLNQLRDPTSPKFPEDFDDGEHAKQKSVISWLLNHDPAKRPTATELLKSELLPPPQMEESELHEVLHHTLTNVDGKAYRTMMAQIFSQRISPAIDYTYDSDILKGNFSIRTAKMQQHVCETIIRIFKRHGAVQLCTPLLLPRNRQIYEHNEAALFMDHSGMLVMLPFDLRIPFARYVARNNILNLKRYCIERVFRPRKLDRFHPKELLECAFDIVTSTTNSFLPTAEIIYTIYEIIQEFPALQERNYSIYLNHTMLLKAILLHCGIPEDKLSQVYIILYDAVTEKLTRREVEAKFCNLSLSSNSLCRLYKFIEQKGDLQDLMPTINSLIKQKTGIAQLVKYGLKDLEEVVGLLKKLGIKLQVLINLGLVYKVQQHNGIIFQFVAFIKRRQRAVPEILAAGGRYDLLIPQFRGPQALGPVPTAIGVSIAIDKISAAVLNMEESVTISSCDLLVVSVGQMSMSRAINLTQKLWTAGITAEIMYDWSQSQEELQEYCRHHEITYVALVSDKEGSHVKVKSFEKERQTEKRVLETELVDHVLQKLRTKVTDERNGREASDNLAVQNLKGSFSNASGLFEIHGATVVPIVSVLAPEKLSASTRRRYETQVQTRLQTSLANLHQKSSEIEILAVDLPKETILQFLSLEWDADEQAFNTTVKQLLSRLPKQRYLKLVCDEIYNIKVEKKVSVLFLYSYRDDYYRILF
Sequence of Protein kinase C beta type (Homo sapiens) (P05771 2-671 limits assumed): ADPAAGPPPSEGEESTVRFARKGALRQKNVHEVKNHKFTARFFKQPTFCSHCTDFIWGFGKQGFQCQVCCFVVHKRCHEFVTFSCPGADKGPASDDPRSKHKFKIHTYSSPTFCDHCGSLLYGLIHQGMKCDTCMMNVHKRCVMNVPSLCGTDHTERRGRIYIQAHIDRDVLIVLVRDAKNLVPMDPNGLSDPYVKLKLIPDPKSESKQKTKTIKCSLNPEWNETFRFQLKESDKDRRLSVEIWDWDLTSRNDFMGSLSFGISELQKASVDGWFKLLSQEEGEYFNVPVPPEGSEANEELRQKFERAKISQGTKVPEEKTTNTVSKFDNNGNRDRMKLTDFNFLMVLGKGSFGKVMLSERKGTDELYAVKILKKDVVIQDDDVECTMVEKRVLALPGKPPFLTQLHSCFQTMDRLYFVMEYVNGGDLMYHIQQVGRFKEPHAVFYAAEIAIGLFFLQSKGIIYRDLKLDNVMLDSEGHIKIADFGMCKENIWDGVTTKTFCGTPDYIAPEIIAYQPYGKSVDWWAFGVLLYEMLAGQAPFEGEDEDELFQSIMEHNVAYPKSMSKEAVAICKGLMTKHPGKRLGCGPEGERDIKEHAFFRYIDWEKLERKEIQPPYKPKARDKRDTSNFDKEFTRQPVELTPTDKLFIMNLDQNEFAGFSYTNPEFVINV

Compound: Cc1cc(C)c(CNc2nc(Cl)nc3c2ncn3C2CCCC2)c(=O)[nH]1
- Activity [1]: 96%
- Activity (Homo sapiens): 124%
- Activity [2]: 112%
- Activity [3]: 97%
- Activity [4]: 119%
- Activity [5]: 110%
- Activity (HCT-116 [6]): 17.1%
- Activity [7]: 101%
- Activity (HCT-116 [8]): 7.59%
- Activity [9]: 96.5%
- Activity [10]: 110%
- Activity [11]: 91%
- Activity (HCT-116 [12]): Active
- Activity [13]: 98.5%
- Activity [14]: 104%
- Activity [15]: 81%
- Activity [16]: 93%
- Activity [17]: 100%
- IC50 (HT-29): 71 nM
- Activity [18]: 95.5%
- Activity [19]: 99.5%
- Activity [20]: 100%
- Activity [21]: 95.5%
- Activity [22]: 102%
- Activity [23]: 100%
